# Experiment: recombinant UMI read abundance after kanamycin selection (control-corrected) (log10(CPM+1)); higher = more efficient recombination; extreme values may be limits of the assay; sequences stand for … in AGTGCAGAGAAAATCGGCCAGTTTTCTCTGCCTGCAGTCCGCATGCCGTGGGACCCCTTGGGTTCTAACCTGTTGCCTAGATTTATGCAGCGGACTGCCTTTCTCCCAAAGTGATAAACCGG…AGGTTGGTTTCACT; site = the 11-nt donor
# Summary of the method: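 In Escherichia coli, a pool of donor and donor-binding-loop pairs, each with a 12-nt UMI, was tested for the IS621 bridge recombinase. Plating was on IPTG (0.07 mM) plus kanamycin, or without selection, in two replicates. Recombinant UMIs were amplified by PCR across the donor–target junction and sequenced, and counts were reported as log10(CPM+1) after averaging and control-derived scaling.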
# 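Further: IS621 bridge recombinase in Escherichia coli cells against a fixed T5 target plasmid.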
row,Sequence,recombinant UMI read abundance (log10)
1,CTCGTTACATGGACCGGTTTTCCCGGTAATCCGTATTTGTG (site CTCGTTACTCA),0.783
2,CTCTACACATGGACCGGTTTTCCCGGTAATCCGTATTTGCG (site CTCTACACTAG),0.613
3,CTCTACACATGGACCGGTTTTCCCGGTAATCCGTATTTGCG (site CTCTACACTCG),1.73
4,CTCTACACATGGACCGGTTTTCCCGGTAATCCGTATTTGCG (site CTCTACACTGG),0.00583
5,CTCTACACATGGACCGGTTTTCCCGGTAATCCGTATTTGCG (site CTCTACACTTG),0.829
6,CTCTACGCATGGACCGGTTTTCCCGGTAATCCGTATTTGCT (site CTCTACACTAG),0.475
7,CTCTACGCATGGACCGGTTTTCCCGGTAATCCGTATTTGCT (site CTCTACCCTAG),0
8,CTCTACGCATGGACCGGTTTTCCCGGTAATCCGTATTTGCT (site CTCTACGCTAG),0.572
9,CTCTACGCATGGACCGGTTTTCCCGGTAATCCGTATTTGCT (site CTCTACTCTAG),2.89
10,CTCTCCTCATGGACCGGTTTTCCCGGTAATCCGTATTTGCC (site CACTCCTCTGG),2.68
11,CTCTCCTCATGGACCGGTTTTCCCGGTAATCCGTATTTGCC (site CCCTCCTCTGG),2.6
12,CTCTCCTCATGGACCGGTTTTCCCGGTAATCCGTATTTGCC (site CGCTCCTCTGG),2.57
13,CTCTCCTCATGGACCGGTTTTCCCGGTAATCCGTATTTGCC (site CTCTCCTCTGG),2.63
14,CTCTGGACATGGACCGGTTTTCCCGGTAATCCGTATTTGGA (site TGAGTCTCTCA),0
15,CTCTTGGCATGGACCGGTTTTCCCGGTAATCCGTATTTGGA (site CACTTGGCTTC),0.273
16,CTCTTGGCATGGACCGGTTTTCCCGGTAATCCGTATTTGGA (site CCCTTGGCTTC),0.169
17,CTCTTGGCATGGACCGGTTTTCCCGGTAATCCGTATTTGGA (site CGCTTGGCTTC),0.00297
18,CTCTTGGCATGGACCGGTTTTCCCGGTAATCCGTATTTGGA (site CTCTTGGCTTC),0.529
19,CTGAATCCATGGACCGGTTTTCCCGGTAATCCGTATTTGTG (site CGGAATCCTAA),0.00601

row,Sequence,recombinant UMI read abundance (log10)
1,CTGAATCCATGGACCGGTTTTCCCGGTAATCCGTATTTGTG (site CTGAATCCTCA),0.684
2,CTGACCTCATGGACCGGTTTTCCCGGTAATCCGTATTTGTA (site CTGACCTCTTA),2.34
3,CTGAGATCATGGACCGGTTTTCCCGGTAATCCGTATTTGTA (site CTGAGATCTTA),2.8
4,CTGAGGCCATGGACCGGTTTTCCCGGTAATCCGTATTTGGT (site CTGAGGCCTAC),0
5,CTGATACCATGGACCGGTTTTCCCGGTAATCCGTATTTGCT (site CTGATACCTAG),0.00587
6,CTGATACCATGGACCGGTTTTCCCGGTAATCCGTATTTGCT (site CTGCTACCTAG),0
7,CTGATACCATGGACCGGTTTTCCCGGTAATCCGTATTTGCT (site CTGGTACCTAG),0
8,CTGATACCATGGACCGGTTTTCCCGGTAATCCGTATTTGCT (site CTGTTACCTAG),0
9,CTGCACACATGGACCGGTTTTCCCGGTAATCCGTATTTGAT (site CTGCACACTAT),2.25
10,CTGCCACCATGGACCGGTTTTCCCGGTAATCCGTATTTGCT (site CTGCAACCTAG),0
11,CTGCCACCATGGACCGGTTTTCCCGGTAATCCGTATTTGCT (site CTGCCACCTAG),0.00511
12,CTGCCACCATGGACCGGTTTTCCCGGTAATCCGTATTTGCT (site CTGCGACCTAG),0
13,CTGCCACCATGGACCGGTTTTCCCGGTAATCCGTATTTGCT (site CTGCTACCTAG),0
14,CTGCCCACATGGACCGGTTTTCCCGGTAATCCGTATTTGCG (site CTGCCCACTCG),1.76
15,CTGCGAGCATGGACCGGTTTTCCCGGTAATCCGTATTTGCA (site CTGCGAGCTTG),0.942
16,CTGCGTTCATGGACCGGTTTTCCCGGTAATCCGTATTTGGA (site CTGCGTTCTTC),1.44
17,CTGCTAACATGGACCGGTTTTCCCGGTAATCCGTATTTGCC (site CTGCTAACTGG),2.21
18,CTGCTACCATGGACCGGTTTTCCCGGTAATCCGTATTTGAT (site CTGCTACCTAA),0.0178
19,CTGCTACCATGGACCGGTTTTCCCGGTAATCCGTATTTGAT (site CTGCTACCTAC),0.00934

row,Sequence,recombinant UMI read abundance (log10)
1,CTGCTACCATGGACCGGTTTTCCCGGTAATCCGTATTTGAT (site CTGCTACCTAG),0.00723
2,CTGCTACCATGGACCGGTTTTCCCGGTAATCCGTATTTGAT (site CTGCTACCTAT),0.00649
3,CTGCTACCATGGACCGGTTTTCCCGGTAATCCGTATTTGCC (site CTGCTACCTAG),0
4,CTGCTACCATGGACCGGTTTTCCCGGTAATCCGTATTTGCC (site CTGCTACCTCG),0.00838
5,CTGCTACCATGGACCGGTTTTCCCGGTAATCCGTATTTGCC (site CTGCTACCTGG),0
6,CTGCTACCATGGACCGGTTTTCCCGGTAATCCGTATTTGCC (site CTGCTACCTTG),0
7,CTGCTACCATGGACCGGTTTTCCCGGTAATCCGTATTTGCT (site ATGCTACCTAG),0.00358
8,CTGCTACCATGGACCGGTTTTCCCGGTAATCCGTATTTGCT (site CAGCTACCTAG),0
9,CTGCTACCATGGACCGGTTTTCCCGGTAATCCGTATTTGCT (site CCGCTACCTAG),0
10,CTGCTACCATGGACCGGTTTTCCCGGTAATCCGTATTTGCT (site CGGCTACCTAG),0
11,CTGCTACCATGGACCGGTTTTCCCGGTAATCCGTATTTGCT (site CTACTACCTAG),0
12,CTGCTACCATGGACCGGTTTTCCCGGTAATCCGTATTTGCT (site CTCCTACCTAG),0
13,CTGCTACCATGGACCGGTTTTCCCGGTAATCCGTATTTGCT (site CTGATACCTAG),0
14,CTGCTACCATGGACCGGTTTTCCCGGTAATCCGTATTTGCT (site CTGCAACCTAG),0
15,CTGCTACCATGGACCGGTTTTCCCGGTAATCCGTATTTGCT (site CTGCCACCTAG),0.00361
16,CTGCTACCATGGACCGGTTTTCCCGGTAATCCGTATTTGCT (site CTGCGACCTAG),0
17,CTGCTACCATGGACCGGTTTTCCCGGTAATCCGTATTTGCT (site CTGCTAACTAG),0.00893
18,CTGCTACCATGGACCGGTTTTCCCGGTAATCCGTATTTGCT (site CTGCTACCTAA),0.0092
19,CTGCTACCATGGACCGGTTTTCCCGGTAATCCGTATTTGCT (site CTGCTACCTAC),0.00952

# — the supplement of paper PMC11208160
